These results are taken from patent publication US12187727B2, “Methods for antagonizing a melanocortin 4 receptor” (Pfizer Inc., priority 2020, dated 2025).

Like-named read-outs stand apart in the source and are kept apart here. Bounds are passed on as bounds.

For orientation: Kb means the equilibrium dissociation constant of an antagonist, usually derived from a functional assay. Usually Ki stands for the dissociation constant of the complex between target and ligand, obtained from inhibition or displacement.

The target of experiment [1] is human Melanocortin-4 receptor (MC4R) (Homo sapiens (Human), UniProt P32245). In words: Functional in vitro MC4R antagonist potency assay (cAMP HTRF in CHO cells). The class given is cell-based. In a few lines: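 CHO cells stably expressing human MC4R were preincubated 30 min at 37 °C with compound ([…], 0.1% DMSO), then stimulated 30 min with EC80 αMSH (200 nM). Intracellular cAMP quantified by HTRF competitive immunoassay and normalized to agonist-stimulated and vehicle-only wells.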
A general note: Time-resolved FRET reads energy transfer from a long-lived donor to a nearby acceptor.

A further experiment addresses hMC4R (Homo sapiens (Human), UniProt P32245). As to the kind of experiment: In vitro binding affinity assay using hMC4R (radioligand competition binding, [125I]-(Nle4, D-Phe7)-α-MSH). The settings on record: geometric mean. On the procedure:
Example AA. In Vitro Binding Affinity Assay Using hMC4R
The binding affinity of test compounds at the […] (hMC4R) was assessed using a radioligand competition binding assay. […] Cell membranes were bulked and frozen until the assay was performed.
Compounds were solubilized in 100% dimethyl sulfoxide (DMSO) to a concentration of 30 mM. A 10-point intermediate dilution series using half log dilutions was created in 100% DMSO with a top concentration of 0.03 mM. […] The final compound range in the assay was 300 nM to 0.01 nM with a final DMSO concentration of 1%. […] The exact concentration of radioligand used for each experiment was determined by liquid scintillation counting and adjusted if necessary.
Frozen hMC4R cell membranes were thawed and Dounce homogenized. Homogenates were resuspended in assay buffer to a concentration of 2 μg per well. […] The plates were incubated for 2 hours at room temperature.
The raw data (expressed as counts per minute) were analyzed using ActivityBase (IDBS Data Management Software). […] Equilibrium dissociation constant for inhibitor of ligand and receptor interaction (Ki) values were then calculated from the IC50 values using the Cheng-Prusoff equation: Ki=IC50/(1+([L]/Kd)), where [L] is the concentration of the radioligand used in the experiment and Kd is the affinity of the radioligand (determined in separate saturation experiments).

[2] abbreviates: read-out: Kb (nM) Antagonist geometric mean.
Setting [3] is: read-out: Ki (nM) geometric mean.
Setting [4] is: human MC4R in CHO cells, cAMP HTRF, 200 nM aMSH challenge, Kb from IC50 by Leff-Dougall equation, geometric mean, read-out: Kb (nM) Antagonist geometric.

Sequence of hMC4R (P32245 whole entry): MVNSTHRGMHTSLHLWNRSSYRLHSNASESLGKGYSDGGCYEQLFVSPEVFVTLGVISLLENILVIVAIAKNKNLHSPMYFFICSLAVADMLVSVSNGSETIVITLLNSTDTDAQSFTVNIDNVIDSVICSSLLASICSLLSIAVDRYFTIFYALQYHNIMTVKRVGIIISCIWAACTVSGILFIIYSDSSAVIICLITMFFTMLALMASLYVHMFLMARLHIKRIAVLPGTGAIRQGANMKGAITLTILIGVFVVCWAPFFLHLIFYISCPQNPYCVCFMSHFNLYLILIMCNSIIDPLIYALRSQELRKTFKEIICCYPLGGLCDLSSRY
Sequence of human Melanocortin-4 receptor (MC4R) (P32245 whole entry): as above

With `Cc1nc2c(cc1-c1ncccn1)CC[C@@]1(CCN(C(=O)[C@H](C)c3ccc(Cl)cc3Cl)C1)N2` (single isomer, unassigned) [Example 35], the antagonist dissociation constant (Kb) in experiment [1] (setting [2]) is over 95 nM. The Ki on hMC4R (setting [3]) was 82 nM.
For `COc1cc([C@@H](C)C(=O)N2CC[C@@]3(CCc4cc(-c5ncccn5)c(C)nc4N3)C2)c(C(F)F)cn1` (single isomer, unassigned) [Example 36], in that order: 0.19 nM and 0.52 nM.
On to `Cc1nc2c(cc1-c1ncccn1)CC[C@@]1(CCN(C(=O)[C@H](C)c3cc(C(F)(F)F)ncc3Cl)C1)N2` (single isomer, unassigned) [Example 39], for which the Kb in experiment [1] (setting [2]) worked out at 23 nM. The Ki at hMC4R (setting [3]) amounted to 4.9 nM.
On the same counts, the results for `COc1cc([C@@H](C)C(=O)N2CC[C@@]3(CCc4cc(-c5ncccn5)c(C)nc4N3)C2)c(C(F)(F)F)cn1` (single isomer, unassigned) [Example 41] are 0.12 nM and 0.53 nM.
For `Cc1nc(OC(F)F)cc([C@@H](C)C(=O)N2CC[C@@]3(CCc4cc(-c5ncccn5)c(C)nc4N3)C2)n1` (single isomer, unassigned) [Example 45], in that order: 0.76 nM and 0.95 nM.
For `Cc1nc2c(cc1-c1ncccn1)CC[C@@]1(CCN(C(=O)[C@H](C)c3ccc(OC(F)(F)F)cc3)C1)N2` (single isomer, unassigned) [Example 48], in that order: 1.8 nM and 0.36 nM.
Consider `Cc1nc2c(cc1-c1ncccn1)CC[C@@]1(CCN(C(=O)[C@H](C)c3ccc(OC(F)(F)F)cc3)C1)N2` (single isomer, unassigned) [Example 49], for which the antagonist dissociation constant (Kb) in experiment [1] (setting [2]) is over 95 nM. For the same compound, the Ki on hMC4R (setting [3]) came to 64 nM.
On the same counts, the results for `Cc1nc2c(cc1-c1ncccn1)CC[C@@]1(CCN(C(=O)[C@H](C)c3ccc(F)c(F)c3)C1)N2` (single isomer, unassigned) [Example 51] are over 110 nM and 120 nM.
Consider `Cc1nc2c(cc1-c1ncccn1)CC[C@@]1(CCN(C(=O)[C@H](C)c3cc(F)c(F)cc3F)C1)N2` (single isomer, unassigned) [Example 52], for which the Kb in experiment [1] (setting [2]) amounted to 2.6 nM. The Ki on hMC4R (setting [3]) was 0.68 nM.
For `Cc1nc2c(cc1-c1ncccn1)CC[C@@]1(CCN(C(=O)[C@H](C)c3cc(F)c(F)cc3F)C1)N2` (single isomer, unassigned) [Example 53], in that order: over 95 nM and 54 nM.
On the same counts, the results for `Cc1nc2c(cc1-c1ncccn1)CC[C@@]1(CCN(C(=O)[C@H](C)c3cc(F)c(F)c(F)c3)C1)N2` (single isomer, unassigned) [Example 55] are over 95 nM and 58 nM.
On the same counts, the results for `Cc1nc2c(cc1-c1ncccn1)CC[C@@]1(CCN(C(=O)[C@H](C)c3cc(F)c(F)c(F)c3)C1)N2` (single isomer, unassigned) [Example 56] are 0.8 nM and 0.51 nM.
As for `COc1nccc([C@@H](C)C(=O)N2CC[C@@]3(CCc4cc(-c5ncccn5)c(C)nc4N3)C2)c1F` (single isomer, unassigned) [Example 57], the Kb in experiment [1] (setting [2]) was found to be 12 nM. Besides, at hMC4R (setting [3]), the inhibition constant (Ki) came out at 2.5 nM.
Take `COc1nccc([C@@H](C)C(=O)N2CC[C@@]3(CCc4cc(-c5ncccn5)c(C)nc4N3)C2)c1F` (single isomer, unassigned) [Example 58]: the Kb in experiment [1] (setting [2]) was over 62 nM. In addition, on hMC4R (setting [3]), the Ki was 190 nM.
Consider `Cc1nc2c(cc1-c1ncccn1)CC[C@@]1(CCN(C(=O)[C@H](C)c3cc(OC(F)F)ncc3Cl)C1)N2` (single isomer, unassigned) [Example 60], for which the Kb in experiment [1] (setting [2]) amounted to 0.18 nM. For the same compound, the inhibition constant (Ki) at hMC4R (setting [3]) amounted to 0.54 nM.
Regarding `COc1cc(OC(F)F)cc([C@@H](C)C(=O)N2CC[C@@]3(CCc4cc(-c5ncccn5)c(C)nc4N3)C2)c1` (single isomer, unassigned) [Example 62], the Kb in experiment [1] (setting [2]) was determined as 0.08 nM. Besides, the Ki at hMC4R (setting [3]) turned out to be 0.15 nM.
For `Cc1nc2c(cc1-c1ncccn1)CC[C@@]1(CCN(C(=O)C(C)c3cc(OC(F)(F)F)ncc3Cl)C1)N2` (single isomer, unassigned) [Example 64], in that order: 5.1 nM and 1 nM.
On to `Cc1nc2c(cc1-c1ncccn1)CC[C@@]1(CCN(C(=O)[C@H](C)c3cc(OC(F)(F)F)ncc3F)C1)N2` (single isomer, unassigned) [Example 76], for which the Kb in experiment [1] (setting [2]) was 9 nM. Also, at hMC4R (setting [3]), the Ki was found to be 2.2 nM.
Take `Cc1nc2c(cc1-c1ncccn1)CC[C@@]1(CCN(C(=O)[C@H](C)c3cc(OC(F)F)ncc3F)C1)N2` (single isomer, unassigned) [Example 78]: the Kb in experiment [1] (setting [2]) came to 1.2 nM. On hMC4R (setting [3]), the Ki is 0.62 nM.
`Cc1nc2c(cc1-c1ncccn1)CC[C@@]1(CCN(C(=O)[C@H](C)c3cc(C(F)(F)F)ncc3F)C1)N2` (single isomer, unassigned) [Example 80]: the Kb in experiment [1] (setting [2]) turned out to be 28 nM. On hMC4R (setting [3]), the inhibitory constant (Ki) was determined as 8 nM.
With `COc1cc([C@@H](C)C(=O)N2CC[C@@]3(CCc4cc(-c5nc(C(F)(F)F)n(C)n5)c(C)nc4N3)C2)c(F)cn1` (single isomer, unassigned) [Example 93], the Kb in experiment [1] (setting [2]) was 4.1 nM. Also, the Ki at hMC4R (setting [3]) was 16 nM.
On the same counts, the results for `COc1cc([C@@H](C)C(=O)N2CC[C@@]3(CCc4cc(-c5nc(C(F)(F)F)n(C)n5)c(C)nc4N3)C2)c(Cl)cn1` (single isomer, unassigned) [Example 95] are 7.5 nM and 86 nM.
On the same counts, the results for `COc1cc(OC)cc([C@@H](C)C(=O)N2CC[C@@]3(CCc4ccc(C)nc4N3)C2)c1` (single isomer, unassigned) [Example 96] are 11 nM and 4.1 nM.
In the case of `COc1cc([C@@H](C)C(=O)N2CC[C@@]3(CCc4cc(-c5cnn(C)c5)c(C)nc4N3)C2)c(Cl)cn1` (single isomer, unassigned) [Example 105], in experiment [1] (setting [4]), the Kb is 16 nM. Also, the Ki on hMC4R (read-out: Ki (nM) geometric) amounted to 54 nM.
For `Cc1nc2c(cc1-c1nnn(C)n1)CC[C@@]1(CCN(C(=O)[C@H](C)c3ccc(OC(F)F)nc3)C1)N2` (single isomer, unassigned) [Example 108], in that order: 7.1 nM and 1.2 nM.
For `COc1cc([C@@H](C)C(=O)N2CC[C@@]3(CCc4cc(-c5nc(OC)n(C)n5)c(C)nc4N3)C2)c(F)cn1` (single isomer, unassigned) [Example 113], in that order: 8 nM and 17 nM.
Consider `COc1cc([C@@H](C)C(=O)N2CCC3(CCc4cc(-c5nc(OC)n(C)n5)c(C)nc4N3)C2)c(Cl)cn1` (single isomer, unassigned) [Example 114], for which the Kb in experiment [1] (setting [4]) is 0.25 nM. The Ki at hMC4R (read-out: Ki (nM) geometric) was 0.48 nM.
For `COc1cc([C@@H](C)C(=O)N2CCC3(CCc4cc(-c5nc(OC)n(C)n5)c(C)nc4N3)C2)c(Cl)cn1` (single isomer, unassigned) [Example 115], in that order: 3.5 nM and 31 nM.
In the case of `COc1cc([C@@H](C)C(=O)N2CC[C@@]3(CCc4cc(-c5nc(C(F)F)n(C)n5)c(C)nc4N3)C2)nc(C)n1` (single isomer, unassigned) [Example 124], the Kb in experiment [1] (setting [4]) stood at 0.81 nM. Also, the Ki at hMC4R (read-out: Ki (nM) geometric) came out at 6.7 nM.
On the same counts, the results for `COc1cc([C@@H](C)C(=O)N2CC[C@@]3(CCc4cc(-c5nnn(C)n5)c(C)nc4N3)C2)nc(C(F)F)n1` (single isomer, unassigned) [Example 128] are 3.8 nM and 10 nM.
For `COc1cc([C@@H](C)C(=O)N2CC[C@@]3(CCc4cc(-c5nc6ccccn6n5)c(C)nc4N3)C2)nc(C(F)F)n1` (single isomer, unassigned) [Example 129], in that order: 1.5 nM and 0.44 nM.
On the same counts, the results for `COc1cc([C@@H](C)C(=O)N2CC[C@@]3(CCc4cc(-c5nc6ccccn6n5)c(C)nc4N3)C2)nc(C(F)F)n1` (single isomer, unassigned) [Example 130] are 9 nM and 5.9 nM.
For `COc1ncc(F)c([C@@H](C)C(=O)N2CC[C@@]3(CCc4cc(-c5nc6ccccn6n5)c(C)nc4N3)C2)n1` (single isomer, unassigned) [Example 132], the Kb in experiment [1] (setting [4]) turned out to be 35 nM. The Ki on hMC4R (read-out: Ki (nM) geometric) stood at 3.4 nM.
For `COc1ncc(F)c([C@@H](C)C(=O)N2CC[C@@]3(CCc4cc(-c5nnn(C)n5)c(C)nc4N3)C2)n1` (single isomer, unassigned) [Example 135], in that order: 10 nM and 3.8 nM.
For `COc1cc([C@@H](C)C(=O)N2CC[C@@]3(CCc4cc(-c5ncccn5)c(C)nc4N3)C2)c(C)cn1` (single isomer, unassigned) [Example 137], in that order: 19 nM and 59 nM.
On the same counts, the results for `COc1cc([C@](C)(F)C(=O)N2CC[C@@]3(CCc4cc(-c5ncccn5)c(C)nc4N3)C2)c(F)cn1` (single isomer, unassigned) [Example 149] are 7.9 nM and 1.8 nM.
